Assay [1] has as its target T1, PfNMT (Plasmodium falciparum, UniProt Q9U419).
T1 sequence (Q9U419 1-410): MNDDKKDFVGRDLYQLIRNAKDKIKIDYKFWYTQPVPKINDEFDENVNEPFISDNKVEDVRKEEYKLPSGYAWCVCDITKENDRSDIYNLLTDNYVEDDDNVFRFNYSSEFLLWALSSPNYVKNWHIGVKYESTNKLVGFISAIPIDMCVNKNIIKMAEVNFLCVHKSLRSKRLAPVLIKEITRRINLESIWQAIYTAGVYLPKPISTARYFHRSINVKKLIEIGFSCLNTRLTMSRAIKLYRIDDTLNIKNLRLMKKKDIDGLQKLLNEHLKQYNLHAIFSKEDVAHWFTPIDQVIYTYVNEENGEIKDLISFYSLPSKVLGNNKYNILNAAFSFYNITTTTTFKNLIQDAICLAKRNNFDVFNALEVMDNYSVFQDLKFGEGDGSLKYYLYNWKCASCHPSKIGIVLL
In words: LELP (cLogP/LE, PfNMT LE).

The subject of assay [2] is Plasmodium falciparum 3D7. In words: Plasmodium falciparum Sybr Green viability assay (3D7). Type of assay: cell-based. Particulars: blood stage, Sybr Green fluorometric assay, 96 h, read-out: Pf 3D7 EC50. The protocol:
Synchronous Plasmodium falciparum 3D7 late stage trophozoites at 33–36 h were used. […] Red blood cells used for the assay were centrifuged to remove the buffy coat and washed twice in Roswell Park Memorial Institute (RPMI) medium 1640 so that no white blood cells were present. The culture medium contained RPMI 1640 with 5 g/L Albumax, 0.025 g/L gentamycin, and 0.292 g/L L-glutamine. Sterile 96-well black tissue culture plates (Costar) were used routinely for every assay. […] Two sets of control were used in duplicate wells, one set with no added drugs (positive control) and one with uninfected red blood cells (negative control). […] After 48 h supernatants were taken from each well and replaced with fresh drug and incubated for a further 48 h in the same manner. At the end of the 96 h incubation, 25 μL of SYBR Green I dye (SYBR Green I nucleic acid gel stain 10000×, in DMSO from Invitrogen) in lysis buffer (1 μL dye to 1 mL of lysis buffer) was added to each well and stored overnight at −20 °C. […] Plates were warmed to room temperature, and fluorescence intensity was measured with a FLUOstar Omega microplate fluorescence reader (BMG Labtech). Values were expressed in relative fluorescence units. […] Fluorescence intensity unit was converted to percentage (%) of growth as follows: [drawing 2]

Assay [3] addresses T1, PfNMT. Put plainly: NMT enzyme inhibition, CPM fluorescence assay (PfNMT). The assay is classed as biochemical. The protocol:
(§1) All IC50 determinations were carried out using a 7-diethylamino-3-(4′-maleimidylphenyl)-4-methylcoumarin (CPM) fluorescence assay, as described previously for HsNMT1,[45] PvNMT,[46] and PfNMT.[21]
(§2) IC50 values are the mean value of two or more determinations, and standard deviation is within 20% of the IC50 unless otherwise specified. Data were elaborated using Microsoft Office Excel 2010, and IC50 values were determined using GraFit 7.0 (Erithacus Software Ltd., U.K.) by nonlinear regression fitting, which were then quoted as Ki as defined below.
(§3) The Michaelis constant (Km) was 3.64 μM and the substrate concentration was 4.00 μM, resulting in a Ki of 0.008 μM. Km values were calculated as described previously.[45]

Assay [4] has as its target T2, PvNMT (Plasmodium vivax, UniProt A5K1A2).
T2 sequence (A5K1A2 1-410): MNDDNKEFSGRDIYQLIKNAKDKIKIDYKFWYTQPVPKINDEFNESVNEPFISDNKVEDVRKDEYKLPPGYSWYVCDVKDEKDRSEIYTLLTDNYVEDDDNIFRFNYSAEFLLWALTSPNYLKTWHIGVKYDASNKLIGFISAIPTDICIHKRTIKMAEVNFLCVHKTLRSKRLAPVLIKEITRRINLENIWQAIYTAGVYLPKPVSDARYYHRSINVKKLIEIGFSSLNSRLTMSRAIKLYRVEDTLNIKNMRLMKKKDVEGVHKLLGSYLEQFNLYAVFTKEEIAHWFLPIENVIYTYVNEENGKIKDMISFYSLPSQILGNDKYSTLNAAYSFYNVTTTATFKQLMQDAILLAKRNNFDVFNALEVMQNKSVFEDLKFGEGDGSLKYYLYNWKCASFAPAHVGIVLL
Put plainly: NMT enzyme inhibition, CPM fluorescence assay (PvNMT). The assay is classed as biochemical. The protocol:
as §1, §2, §3

A word on the EC50: it is the midpoint of the concentration-response curve. A word on the Ki: it is a measure of affinity in units of concentration, obtained from inhibition or displacement. Lower therefore signals higher affinity. As for `COc1cccc(COC(=O)c2sc3ccccc3c2OC2CCNCC2)c1` [compound 1], in assay [1], the LELP was determined as 13.5. Besides, the EC50 in assay [2] is 2000 nM. For the same molecule, the Ki was 832 nM in assay [3] and 84 nM in assay [4].
